Measured values as given in ChEMBL document CHEMBL5614417, “Discovery of AMPs from random peptides via deep learning-based model and biological activity validation” (Eur J Med Chem, 2024).
In brackets after ≈: the same amount, converted by molar mass. Activity calls are given as the source filed them. The calls are words filed in the database; no cut-off is given here. Where a SMILES comes first, the peptide text is derived from it.

Experiments:
Staphylococcus aureus [1] = assay: Inhibition of biofilm formation in Staphylococcus aureus at 4 times MIC incubated for 24 hrs by crystal violet staining based assay; type: functional
[2] = Toxicity in BALB/c mouse assessed as heart damage at 400 mg/kg, ip measured after 48 hrs by H and E staining based assay; type: organism-based; settings: in vivo
Cell membrane [3] = assay: Induction of cell membrane damage in Staphylococcus aureus assessed as change in morphology by measuring deformed membrane at 4 times MIC incubated for 5 hrs by SEM analysis; type: cell membranes
[4] = system: Staphylococcus epidermidis; assay: Antibacterial activity against Staphylococcus epidermidis ATCC 12228 incubated for 18 hrs by visual inspection method; type: functional
[5] = Toxicity in BALB/c mouse assessed as edema in hepatocytes at 200 to 400 mg/kg, ip measured after 48 hrs by H and E staining based assay; type: organism-based; settings: in vivo, dose 200-400 mg/kg
Acinetobacter baumannii [6] = assay: Antibacterial activity against multidrug resistant Acinetobacter baumannii 1 incubated for 18 hrs by visual inspection method; type: functional
Staphylococcus aureus [7] = assay: Antibacterial activity against Staphylococcus aureus ATCC 25923 incubated for 18 hrs in presence of 100 mM NaCl by visual inspection method; type: functional
Cell membrane [8] = assay: Induction of cell membrane damage in Staphylococcus aureus assessed as decrease in red/green fluorescence ratio by DiOC2(3) fluorescent probe based assay; type: cell membranes
Staphylococcus aureus [9] = assay: Inhibition of biofilm formation in Staphylococcus aureus at 2 times MIC incubated for 24 hrs by crystal violet staining based assay; type: functional
Cell membrane [10] = assay: Induction of cell membrane damage in Staphylococcus aureus assessed as change in morphology by measuring roughened membrane at 4 times MIC incubated for 5 hrs by SEM analysis; type: cell membranes
Cell membrane [11] = assay: Induction of inner membrane permeability in Escherichia coli ML-35 measured every 5 mins for 90 mins by ONPG dye based assay; type: cell membranes
Staphylococcus aureus [12] = assay: Antibacterial activity against Staphylococcus aureus ATCC 25923 incubated for 18 hrs by visual inspection method; type: functional
Escherichia coli [13] = assay: Antibacterial activity against Escherichia coli ATCC 25922 incubated for 18 hrs by visual inspection method; type: functional
Staphylococcus aureus [14] = assay: Antibacterial activity against Staphylococcus aureus ATCC 25923 incubated for 18 hrs in presence of 150 mM NaCl by visual inspection method; type: functional
[15] = Toxicity in BALB/c mouse assessed as kidney damage at 400 mg/kg, ip measured after 48 hrs by H and E staining based assay; type: organism-based; settings: in vivo
Acinetobacter baumannii [16] = assay: Antibacterial activity against Acinetobacter baumannii ATCC 19606 incubated for 18 hrs by visual inspection method; type: functional
[17] = Toxicity in BALB/c mouse assessed as lung damage at 400 mg/kg, ip measured after 48 hrs by H and E staining based assay; type: organism-based; settings: in vivo
[18] = Hemolytic activity in rat erythrocytes at 1000 ug/ml incubated for 1 hr; type: toxicity, cell-based, Erythrocyte; settings: at 1000 µg/mL, read-out: Activity
Staphylococcus aureus [19] = assay: Bactericidal activity against Staphylococcus aureus at 2 times MIC measured after 6 hrs by time kill kinetic assay; type: functional, organism-based
Escherichia coli [20] = assay: Bactericidal activity against Escherichia coli at 4 times MIC measured after 2 hrs by time kill kinetic assay; type: functional
Staphylococcus aureus [21] = assay: Antibacterial activity against Staphylococcus aureus infected in BALB/c mouse at 10 to 20 mg/kg administered every 4 hrs for 3 doses and measured after 4 hrs post last dose; type: functional, organism-based; settings: dose 10-20 mg/kg, time 16.0 hrs
Cell membrane [22] = assay: Induction of cell membrane damage in Escherichia coli assessed as change in morphology by measuring deformed membrane at 4 times MIC incubated for 5 hrs by SEM analysis; type: cell membranes
Escherichia coli [23] = assay: Antibacterial activity against ESBL Escherichia coli 3 incubated for 18 hrs by visual inspection method; type: functional
Cell membrane [24] = assay: Induction of cell membrane damage in Staphylococcus aureus assessed as decrease in red/green fluorescence ratio at 2 times MIC by DiOC2(3) fluorescent probe based assay; type: cell membranes
Staphylococcus aureus [25] = assay: Antibacterial activity against Staphylococcus aureus ATCC 25923 incubated for 18 hrs in presence of 50 mM NaCl by visual inspection method; type: functional
Escherichia coli [26] = assay: Antibacterial activity against Escherichia coli ATCC 25922 incubated for 18 hrs in presence of 100 mM NaCl by visual inspection method; type: functional
Cell membrane [27] = assay: Disruption of outer membrane integrity in Escherichia coli assessed as increase in fluorescence intensity by measuring NPN uptake at 1 to 4 times MIC by fluorescence based analysis; type: cell membranes; settings: TDE = time-dependent effect
Acinetobacter baumannii [28] = assay: Antibacterial activity against multidrug resistant Acinetobacter baumannii 3 incubated for 18 hrs by visual inspection method; type: functional
Cell membrane [29] = assay: Induction of cell membrane damage in Staphylococcus aureus at 4 times MIC incubated for 30 mins by PI staining based confocal laser scanning microscopic analysis; type: cell membranes
Staphylococcus aureus [30] = assay: Inhibition of biofilm formation in Staphylococcus aureus at 16 times MIC incubated for 24 hrs by crystal violet staining based assay; type: functional
Staphylococcus aureus [31] = assay: Inhibition of biofilm formation in Staphylococcus aureus at MIC incubated for 24 hrs by crystal violet staining based assay; type: functional
Acinetobacter baumannii [32] = assay: Antibacterial activity against multidrug resistant Acinetobacter baumannii 2 incubated for 18 hrs by visual inspection method; type: functional
Staphylococcus aureus [33] = assay: Bactericidal activity against Staphylococcus aureus at 4 times MIC measured after 2 hrs by time kill kinetic assay; type: functional
Staphylococcus aureus [34] = assay: Induction of resistance development against Staphylococcus aureus assessed as fold increase in MIC after 21 passages; type: functional
Escherichia coli [35] = assay: Antibacterial activity against ESBL Escherichia coli 1 incubated for 18 hrs by visual inspection method; type: functional
Cell membrane [36] = assay: Induction of cell membrane damage in Staphylococcus aureus assessed as change in morphology by measuring numerous blebs covered membrane at 4 times MIC incubated for 5 hrs by SEM analysis; type: cell membranes
Erythrocyte [37] = assay: Hemolytic activity in rat erythrocytes at 250 ug/ml incubated for 1 hr; type: toxicity, cell-based; settings: dose 250 µg/ml
[38] = Stability in Sprague-Dawley rat serum assessed as retention rate at 62.5 ug/ml measured after 2 hrs by RP-HPLC method; type: ADME, cell-free; settings: at 62.5 µg/mL, read-out: Stability
Klebsiella pneumoniae = assay: Antibacterial activity against Klebsiella pneumoniae ATCC 700603 incubated for 18 hrs by visual inspection method; type: functional
Escherichia coli [39] = assay: Antibacterial activity against ESBL Escherichia coli 5 incubated for 18 hrs by visual inspection method; type: functional
Acinetobacter baumannii [40] = assay: Antibacterial activity against multidrug resistant Acinetobacter baumannii 4 incubated for 18 hrs by visual inspection method; type: functional
Staphylococcus aureus [41] = assay: Antibacterial activity against methicillin resistant Staphylococcus aureus 1 incubated for 18 hrs by visual inspection method; type: functional
Escherichia coli [42] = assay: Bactericidal activity against Escherichia coli at 2 times MIC measured after 3 hrs by time kill kinetic assay; type: functional, organism-based
Escherichia coli [43] = assay: Antibacterial activity against ESBL Escherichia coli 4 incubated for 18 hrs by visual inspection method; type: functional
Staphylococcus aureus [44] = assay: Antibacterial activity against methicillin resistant Staphylococcus aureus 2 incubated for 18 hrs by visual inspection method; type: functional
Erythrocyte [45] = assay: Hemolytic activity in rat erythrocytes at 500 to 1000 ug/ml incubated for 1 hr; type: toxicity, cell-based; settings: dose 500-1000 µg/ml
Staphylococcus aureus [46] = assay: Inhibition of biofilm formation in Staphylococcus aureus at 8 times MIC incubated for 24 hrs by crystal violet staining based assay; type: functional

## CC[C@H](C)[C@H](NC(=O)[C@H](Cc1ccccc1)NC(=O)[C@@H](N)Cc1c[nH]c2ccccc12)C(=O)N[C@H](C(=O)N[C@@H](Cc1c[nH]c2ccccc12)C(=O)N[C@@H](Cc1c[nH]cn1)C(=O)N[C@@H](Cc1c[nH]c2ccccc12)C(=O)N[C@@H](CCCNC(=N)N)C(=O)N[C@@H](CCCCN)C(=O)N[C@H](C(=O)N1CCC[C@H]1C(=O)N1CCC[C@H]1C(=O)N[C@@H](CCCCN)C(N)=O)[C@@H](C)CC)[C@@H](C)CC (H-WFIIWHWRKIPPK-NH2)
Staphylococcus aureus [1]
  inhibition (INH): 32.46%
[2]
  Activity: Non-Toxic
Cell membrane [3]
  Activity: Active
[4]
  MIC: 3.75 µg/mL (≈ 2.08 µM)
[5]
  Activity: Toxic
Acinetobacter baumannii [6]
  MIC: 7.5 µg/mL (≈ 4.15 µM)
Staphylococcus aureus [7]
  MIC: 7.5 µg/mL
Cell membrane [8]
  Activity: Dose-Dependent Effect
Staphylococcus aureus [9]
  inhibition (INH): 20.76%
Cell membrane [10]
  Activity: Active
Cell membrane [11]
  Activity: Dose-Dependent Effect
Staphylococcus aureus [12]
  MIC: 7.5 µg/mL (≈ 4.15 µM)
Escherichia coli [13]
  MIC: 15 µg/mL (≈ 8.3 µM)
Staphylococcus aureus [14]
  MIC: 7.5 µg/mL
[15]
  Activity: Non-Toxic
Acinetobacter baumannii [16]
  MIC: 7.5 µg/mL (≈ 4.15 µM)
[17]
  Activity: Non-Toxic
[18]
  hemolysis at 1 h, 1000 ug/ml: 10.8%
Staphylococcus aureus [19]
  Activity: Active
Escherichia coli [20]
  Activity: 100%
Staphylococcus aureus [21]
  Activity: Active
Cell membrane [22]
  Activity: Active
Escherichia coli [23]
  MIC: 15 µg/mL (≈ 8.3 µM)
Cell membrane [24]
  Activity: Active
Staphylococcus aureus [25]
  MIC: 7.5 µg/mL
Escherichia coli [26]
  MIC: 15 µg/mL
Cell membrane [27]
  Activity: Tde
Acinetobacter baumannii [28]
  MIC: 7.5 µg/mL (≈ 4.15 µM)
Cell membrane [29]
  Activity: Active
Staphylococcus aureus [30]
  inhibition (INH): >90%
Staphylococcus aureus [31]
  inhibition (INH): 12.29%
Acinetobacter baumannii [32]
  MIC: 7.5 µg/mL (≈ 4.15 µM)
Staphylococcus aureus [33]
  Activity: 100%
Staphylococcus aureus [34]
  fold change (FC): 2
Escherichia coli [35]
  MIC: 15 µg/mL (≈ 8.3 µM)
Cell membrane [36]
  Activity: Active
Erythrocyte [37]
  Activity: Non-Toxic
[38]
  remaining at 2 h, 62.5 ug/ml: 41.2%
Klebsiella pneumoniae
  MIC: 30 µg/mL (≈ 16.6 µM)
Escherichia coli [39]
  MIC: 15 µg/mL (≈ 8.3 µM)
Acinetobacter baumannii [40]
  MIC: 7.5 µg/mL (≈ 4.15 µM)
Staphylococcus aureus [41]
  MIC: 7.5 µg/mL (≈ 4.15 µM)
Escherichia coli [42]
  Activity: Active
Escherichia coli [43]
  MIC: 15 µg/mL (≈ 8.3 µM)
Staphylococcus aureus [44]
  MIC: 7.5 µg/mL (≈ 4.15 µM)
Erythrocyte [45]
  Activity: Toxic
Staphylococcus aureus [46]
  inhibition (INH): >90%
